Measured values taken from publication PMC6017655, “In Silico and in Vitro-Guided Identification of Inhibitors of Alkylquinolone-Dependent Quorum Sensing in Pseudomonas aeruginosa” (Molecules : A Journal of Synthetic Chemistry and Natural …, 2018).
Entries after “also recorded” stand apart in the source; their conditions may differ. Read-outs that look alike come from different tables or passages of the source.

Tests used:
[1] = system: PA14; experiment: Bacterial growth (optical density) in reporter assay, PA14; type: cell-based, Pseudomonas aeruginosa; details: compound vs DMSO control
Description: (§1) To determine the ability of the quinolines to inhibit PqsR functionality, the P. aeruginosa biosensor strains, PAO1-L and PA14, incorporating a chromosomal mCTX::PpqsA-lux transcriptional fusion, were used. These report on the activation of the pqsA promoter, regulated by PqsR [25]. PAO1-L and PA14 were chosen because they are genetically amenable and belong to the two major P. aeruginosa genomic groups. The quinolone compounds were incubated with the corresponding strain, and luminescence and optical density readings were recorded to monitor the effect of the quinolines on PqsR activity and bacterial growth, respectively. The compounds were screened at 10 µM concentration, and the activity was compared to a control of DMSO (0.1%) (Figure 3a). To be considered a hit, a threshold of at least 50% inhibition of the test compound, relative to the negative control had to be reached, without affecting bacterial growth. […] Concentration-response experiments were then carried out to determine the IC50 values (Figure 3b,c), which are summarised in Table 1.
Figure 3 Whole bacterial cell-based P. aeruginosa compound screen for both PqsR and growth inhibition (a) Activity against PA14 (green) and PAO1-L (purple) PpqsA-lux reporter strains at 10 µM test compound; (b) and (c) Dose-response curves for active compounds against PA14 (b) and PAO1-L (c); (d) and (e) growth curves for PA14 (d) and PAO1-L (e) in the presence of compound or DMSO control.

[2] = Plasma stability, rat; type: in vitro ADME; details: 37 °C, up to 2 h, read-out: Plasma Stability Rat t1/2
Description: Dilutions of a 10 mM test compound DMSO stock solution were prepared so that the final DMSO concentration was 1% v/v and the final test compound concentration tested was 1 µM. Following the addition of the test compound to plasma, the samples were pre-incubated for 10 min prior to the start of the incubation by the addition of the test compound. The test compound was incubated (n = 2; 1 µM final concentration) at 37 °C with plasma for up to 2 h. Aliquots were sampled at several time points and mixed with acetonitrile (containing internal standard) to terminate the reaction and precipitate the proteins. All the samples were mixed, centrifuged and the supernatants analysed by UPLC-MSMS. Parent disappearance and half-life (t 1/2) values were determined from the slope of the parent depletion curve. Control compounds (imidapril, enalapril, tenofovir and/or propantheline), were respectively included.

[3] = system: PqsR (pqsA promoter, PAO1-L mCTX::PpqsA-lux); experiment: Whole cell biosensor reporter assay, PAO1-L mCTX::PpqsA-lux; type: cell-based, Pseudomonas aeruginosa; details: for IC50: Mean ± SD, n = 3; for activity at 10 µM: PAO1, read-out: PAO1-L Remaining Activity %; for PqsR inhibitory activity (in words), PAO1-L: screen at 10 µM / dose-response
Description: as §1
Strains PA14 mCTX::PpqsA-lux and PAO1-L mCTX::PpqsA-lux were constructed using plasmid mini-CTX::PpqsA-lux, as previously described, and the assay was performed according to a published protocol. For screening, the compounds were tested at a concentration of 10 µM, which was prepared from a 10 mM stock, in DMSO.

[4] = system: AQ production in PAO1-L; experiment: Alkylquinolone (HHQ, PQS, HQNO) production by LC-MS/MS, PAO1-L; type: cell-based, Pseudomonas aeruginosa; details: 3x IC50, 16 h, culture supernatant
Description: (§2) HQNO, can protect Staphylococcus aureus from vancomycin [31] and contributes to the environmental competitiveness of P. aeruginosa, through its activity as a potent inhibitor of the cytochrome bc1 complex. […] LC-MS/MS was used to quantify the major AQs HHQ, PQS and HQNO after incubation of the P. aeruginosa strains with the hit compounds, for 16 h. The assay was performed using both PAO1-L and PA14 strains which were treated with PqsR antagonists at concentrations three-fold higher than their IC50 values. The results obtained depended on the inhibitor and strain tested (Figure 5).
(§3) For each test sample, 100 µL of sterile filtered supernatant (the same preparation as for pyocyanin) was spiked with 10 µL of an internal standard solution (10 µM d4-PQS in MeOH), and diluted with water, to a total volume of 500 µL. Samples were then extracted three times with an 0.5 mL aliquot of ethyl acetate, vortex mixing the aqueous/organic mix for 2 min, then removing the organic phase once the layers had successfully partitioned. For each sample, the combined organic extracts were dried under vacuum and re-dissolved in 100 µL MeOH prior to analysis. For the LC-MS/MS analysis of supernatant extracts, the chromatography was achieved using a Shimadzu series 10AD VP LC system (Columbia, MD, USA). The LC column, maintained at 40 °C, was a Phenomenex Gemini C18 (3.0 µm, 100 × 3.0 mm) (Macclesfield, Cheshire, UK) with an appropriate guard column. Mobile phase A was 0.1% (v/v) formic acid in water containing 2 mM 2-picolinic acid, and mobile phase B 0.1% (v/v) formic acid in methanol. The flow rate throughout the chromatographic separation was 450 µL/min. After an injection of a 2 µL/sample, a binary gradient, beginning initially at 30% B, increased linearly to 99% B over 5 min. The composition remained at 99% B for 3 min, decreased to 30% B over 1 min, and stayed at this composition for 4 min, to allow for column equilibration. […] Where chromatographic peaks for HHQ, HQNO and PQS were detected, a peak area was determined, and analyte peak area/internal standard peak area calculated.

[5] = Hepatic microsomal stability, rat; type: in vitro ADME; details: liver microsomes, pH 7.4, 0.5 mg/mL protein, NADPH, 37 °C; for microsomal CLint at 1 µM: read-out: Microsomal Stability Rat Clint (intrinsic clearance); for half-life at 1 µM: read-out: Microsomal Stability Rat t1/2
Description: Dilutions of a 1 mM test compound DMSO stock solution were prepared in buffer (typically 0.01 M phosphate buffered saline (pH 7.4) so that the final DMSO concentration was 0.1% v/v and the final test compound concentration tested was 1 µM. Following addition of protein (0.5 mg/mL final) and NADPH, the samples were pre-incubated for 10 min prior to the start of the incubation by the addition of test compound. The test compounds were then incubated (n = 2; 1 µM final concentration) at 37 °C with tissue microsomes. Aliquots were sampled at several time points and mixed with acetonitrile (containing internal standard) to terminate the reaction and precipitate the proteins. All the samples were mixed, centrifuged and the supernatants analysed by UPLC-MS/MS. The intrinsic clearance (Clint) and half-life (t 1/2) values were determined from the slope of the parent depletion curve. Control compounds for low, moderate and high intrinsic clearance, respectively, for both human and rat microsomes, were included.

[6] = system: AQ production in PA14; experiment: Alkylquinolone (HHQ, PQS, HQNO) production by LC-MS/MS, PA14; type: cell-based, Pseudomonas aeruginosa; details: 3x IC50, 16 h, culture supernatant
Description: as §2, §3

[7] = Pseudomonas aeruginosa, PAO1, read-out: IC50 PAO1-L, PpqsA-lux reporter

Row | Compound | Effect on bacterial growth, PA14 [1] | half-life at 1 µM [2] [min] | IC50 [3, 7] [µM] | activity at 10 µM ([3]; Pseudomonas aeruginosa) [%] | IC50 ([3]; read-out: IC50 PAO1-L, PpqsA-lux reporter) [µM] | PqsR inhibitory activity (in words), PAO1-L [3] | Inhibition of AQ production (in words), PAO1-L [4] | microsomal CLint at 1 µM [5] [µL/min/mg] | half-life at 1 µM [5] [min] | Inhibition of AQ production (in words), PA14 [6]
1 | CC(=O)N1N=C(c2ccccc2)CC1c1cccc(Nc2ccnc3cc(Cl)ccc23)c1 (stereo not shown) [IIa] | without interfering with bacterial growth | > 240 | 1.5 | 31.6 ± 6.6 | 1.6 ± 0.29 | strong PqsR inhibitory activity | moderate effect | 87.8 | 15.8 | moderate effect
2 | O=CN1N=C(c2ccccc2)CC1c1cccc(Nc2ccnc3cc(Cl)ccc23)c1 (stereo not shown) [Ia] | without interfering with bacterial growth | > 240 | 12.4 ± 1.79 | 25.8 ± 1.17 | – | strong PqsR inhibitory activity; also recorded: modest activity | strongly-inhibited AQ production | 122 | 11.5 | strongly-inhibited AQ production
